“And” between values parts separate entries of the source, which are not always exact repeats. Identical values can stand only once. Where no end group is shown, it is not given here. Side-chain parts run from the residue outwards. rhodamine‑labelled PEGylated perfluoro‑15‑crown‑5 ether nanoemulsion = not defined here; carboxyfluorescein = N-terminal fluorescence label (CF)

Data set [1] concerns human neutrophils. The data set is described as follows: Cell surface activation markers CD11b, CD63, CD66b on human neutrophils. In kind it is cell-based. Particulars: 50 µl ml^−1 hNPPFCs or 1 µg ml^−1 LPS, 1 h, 37 °C. The procedure:
(§1) A total of 1 × 10^6 isolated human neutrophils were incubated with 50 µl ml^−1 ^hNPPFCs, 1 µg ml^−1 LPS or only DMEM for 1 h at 37 °C followed by intense washing with MACS buffer. Afterward, 1 × 10^5 cells were transferred into 96-well plates and stained for CD11b and CD63 (eBioscience, clone HSC6) or CD66b (eBioscience, clone G10F5) for 20 min at 4 °C. After two washing steps with MACS buffer, cells were analyzed by flow cytometry. A total of 1 × 10^5 isolated murine neutrophils were transferred into a 96-well plate and stained for CD11b, CD62L and CD63 for 20 min at 4 °C. After two washing steps with MACS buffer, cells were analyzed by flow cytometry.

Data set [2] has as its system human neutrophils. The data set is described as follows: ROS release of human neutrophils. Particulars: for ROS release of human neutrophils, raw data (panel C): single samples #1-#3. In kind it is cell-based. As for the experimental part: (§2) A total of 5 × 10^6 human neutrophils were incubated in 10 ml DMEM with or without 1 µg ml^−1 peptide or 50 µl ml^−1 emulsion. At distinct time points, cells were pelleted, and 1 ml of the supernatant was immediately frozen at −80 °C. Subsequently, the amount of ROS was determined by chemiluminescence analysis. […] After centrifugation, 80 µl supernatant was used to determine ROS by UPLC measurement (Waters Acquity Bio H-Class with 2475 FLD Detector). To this end, gradients A and B (0.1% trifluoroacetic acid in 1 l water and acetonitrile, respectively) at a flow rate of 0.26 ml min^−1 at 17 °C were used. Dihydroethidium was excited and detected at 480 nm and 580 nm, respectively.

Data set [3] in a line: 19F content of PFCs by 19F MRI. It is filed as physicochemical. The note with it: panel B raw data, single replicates #1-#3. The procedure: Extended Data Fig. 8 Physicochemical properties and cellular uptake of ^hNPPFCs. a, Cellular uptake of ^hNPPFCs by human monocyte subsets and neutrophils: Human immune cells isolated from the blood of healthy volunteers were incubated with ^hNPPFCs. Subsequently, cells were stained with CD11b, CD14 and CD16 to differentiate between neutrophils (red), classical monocytes (gray) and non-classical monocytes (blue) and the cells were analyzed by flow cytometry. The cellular uptake of ^hNPPFCs was determined under unstimulated conditions (top) and after treatment with 1 µg/ml LPS (bottom). b, Physicochemical properties of the generated nanotracers: Characterization of size, size distribution and ζ potential of ^MalPFCs and targeting PFCs (^hNPPFCs, ^ConPFCs) by dynamic light scattering (DLS). The rhodamine fluorescence signal of the PCS was determined by IVIS imaging and the ^19F content by ^19F MRI. c-e, Cryo transmission electron microscopy of the generated nanotracers: c, Cryo transmission electron microscopy (cryo-TEM) of ^hNPPFCs and ^ConPFCs. Graphs: The diameter of the PFCs was determined manually from three images categorized into 25 nm groups. […] The number of PFCs and liposomes was manually determined (n = 4/5 images). […]

The next data set deals with bone marrow neutrophils. Briefly: In situ labeling of bone marrow neutrophils and tracking after MI, 1H/19F MRI of bone marrow. It is filed as in vivo, mouse. Particulars: Depletion of neutrophils by Ly6G Ab injection 48 and 24 h prior to mNPPFC injection; 24 h after injection; individual experiments.
Data set [4] deals with murine neutrophils. Briefly: Cell surface activation markers CD11b, CD62L, CD63 on murine blood neutrophils. It is filed as in vivo, mouse. Particulars: mNPPFCs 1 mM per kg BW i.v., blood 2 h later; LPS = LPS-doped Matrigel s.c. 24 h before (positive control); individual experiments, only first lines of sheet shown. The procedure: […] per kg BW ^mNPPFCs or saline were injected i.v., and, 2 h later, neutrophils were isolated from the blood and stained for CD11b, CD62L and CD63. As a positive control, mice were implanted with LPS-doped Matrigel 24 h before blood withdrawal.
as §1
Extended Data Fig. 9 Impact of ^mNPPFCs on murine neutrophils. a, Differentially expressed genes (DEGs) identified by bulk RNA sequencing of murine blood neutrophils after intravenous injection of ^mNPPFCs, ^ConPFCs or NaCl (Ctrl) as control. […] In total 25655 RNA transcripts were analyzed. b, Cell surface expression of CD11b, CD62L, CD63 on blood derived murine neutrophils after intravenous application of NaCl (Ctrl) or ^mNPPFCs. As a positive control, matrigel doped with 50 µg LPS was subcutaneously implanted into the neck of mice and after 24 h, neutrophils were isolated from the blood and analyzed by flow cytometry. c, Impact of ^mNPPFC incubation on neutrophil migration, phagocytosis and release of reactive oxygen species (ROS). Migration was determined in vivo by assessment of the infiltration of neutrophils into a matrigel/LPS plug; phagocytosis was determined by intravenous injection of FITC-labelled E.coli into mice and the subsequent removal and flow cytometric analysis of blood neutrophils; extracellular ROS were measured within the cell supernatant of blood neutrophils by oxidation of DHE (dihydroethidium) followed by UPLC analysis. […]

The test system of data set [5] is murine neutrophils. The data set is described as follows: ROS production of murine neutrophils after mNPPFC injection (dihydroethidium, UPLC). In kind it is in vivo, mouse. Particulars: in the presence of the targeting PFCs. As for the experimental part: […] per kg BW ^mNPPFCs or saline were injected i.v., and, 2 h later, neutrophils were isolated from the bone marrow, and extracellular ROS was measured in the cell supernatant by oxidation of dihydroethidium followed by UPLC analysis.
as §2
Extended Data Fig. 9 Impact of ^mNPPFCs on murine neutrophils. a, Differentially expressed genes (DEGs) identified by bulk RNA sequencing of murine blood neutrophils after intravenous injection of ^mNPPFCs, ^ConPFCs or NaCl (Ctrl) as control. […] In total 25655 RNA transcripts were analyzed. b, Cell surface expression of CD11b, CD62L, CD63 on blood derived murine neutrophils after intravenous application of NaCl (Ctrl) or ^mNPPFCs. […]

For “hNPPFCs: PEGylated rhodamine-labeled perfluorocarbon nanoemulsion coupled with human neutrophil-specific peptide hNP (carboxyfluorescein-DLVTSKLQVGGGC; also: C-terminal Cys coupled via maleimide-PEG2000-DSPE to rhodamine-labelled perfluorocarbon nanoemulsion)”, the “expression of CD11b, CD63 and CD66b on human neutrophils” value in the data set on human neutrophils [1] is recorded as “did not affect expression of these proteins”. Moreover, the “impact on human neutrophil ROS release” value in the data set with human neutrophils [2] (1 µg ml^−1 peptide or 50 µl ml^−1 emulsion) was “neither ^hNPPFCs nor the free peptide had any impact on human neutrophil ROS release”. The “ROS release of human neutrophils, raw data (panel C)” value is 1725.82 and 1480.41 and 1396.67 in the data set with human neutrophils [2] (time point 1); 1373.8 and 1515.29 and 1254.87 with human neutrophils [2] (time point 3); 2382.05 and 1474.31 and 1302.37 with human neutrophils [2] (time point 6); 1643.61 and 1455.28 in the data set with human neutrophils [2] (time point 24). Besides, in data set [3], the 19F amount was 6.421 and 6.014 and 6.958.
For “mNPPFCs: PEGylated rhodamine-labeled perfluoro-15-crown-5 ether nanoemulsion (maleimide PFCs) coupled with murine neutrophil-specific peptide mNP (carboxyfluorescein-DFYKPMPNLRITGGGC([maleimide‑PEG2000‑DSPE-rhodamine‑labelled PEGylated perfluoro‑15‑crown‑5 ether nanoemulsion]); reading uncertain; also: printed as DFYKPMPNLRIT-GGG-C)”, in the data set with bone marrow neutrophils, the “19F signal within the femur and tibia (bone marrow)” value was 519273 and 821555 and 523902 and 983614 and 347032. Moreover, in the data set with murine neutrophils [4], the “cell surface expression of CD11b on blood derived murine neutrophils, flow cytometry” value was 2655 and 2691 and 3361 and 1842; the “cell surface expression of CD62L on blood derived murine neutrophils, flow cytometry” value is 1971 and 1966 and 1558 and 2425; the “cell surface expression of CD63 on blood derived murine neutrophils, flow cytometry” value was 135 and 126 and 105. Moreover, the “ROS production of murine neutrophils” value with murine neutrophils [5] is “unaltered”.

Values taken from article PMC11357992, “Non-invasive mapping of systemic neutrophil dynamics upon cardiovascular injury” (Nature Cardiovascular Research, 2023).
